Measurements as given in ChEMBL document CHEMBL4190258, “Spirograterpene A, a Tetracyclic Spiro-Diterpene with a Fused 5/5/5/5 Ring System from the Deep-Sea-Derived Fungus Penicillium granulatum MCCC 3A00475” (J Nat Prod, 2017).
≈ marks a conversion by molar mass, not a printed value.

How the values were obtained:
[1] = test system: RBL-2H3; test: Antiallergic activity in DNP-BSA-stimulated rat RBL2H3 cells assessed as inhibition of anti-DNP-IgE-mediated degranulation by measuring beta-hexosaminidase activity at 20 microg/ml pre-incubated for 1 hr followed by DNP-BSA stimulation by fluorescence assay relative to control; format: functional
[2] = test system: Staphylococcus aureus; test: Antibacterial activity against methicillin-resistant Staphylococcus aureus incubated for 18 hrs by broth microdilution method; format: functional
[3] = test system: HL-60; test: Cytotoxicity against human HL60 cells assessed as reduction in cell viability; format: functional, cell-based

## C[C@@H]1C[C@@H](O)[C@H](C)[C@@]12CCC1=C2C[C@@]2(C)CC[C@](C)(C(=O)O)[C@@H]12
[1]
  inhibition at 20 µg/mL: 18%

## CCOC(=O)N1CCC(=C2c3ccc(Cl)cc3CCc3cccnc32)CC1 [LORATADINE]
[1]
  inhibition at 20 µg/mL: 35%

## C[C@H]1[C@H](O)CC(=O)[C@]2(C)CC[C@H]3[C@@H]4[C@@](C)(CO)CC[C@]4(C)C[C@]132
[1]
  inhibition at 20 µg/mL: 4%

## C[C@@H]1C=CC(=O)[C@@]2(C)CC[C@H]3[C@@]12C[C@]1(C)CCC(C)(C)[C@]31C
[2]
  MIC: 8 µg/mL (≈ 26.6 µM)

## C[C@@H]1C=CC(=O)[C@@]2(C)CC[C@@H]3[C@@H]4[C@@](C)(CC[C@@]4(C)CO)C[C@@]132
[1]
  inhibition at 20 µg/mL: 10%
[3]
  IC50: 38 nM
